{
  "source": "patent EP3030673B1",
  "about": "“SCREENING AND IDENTIFICATION OF RESISTANT MARKERS IN CRUSTACEAN” (priority 2013, dated 2015)",
  "key": {"[1]": {"system": "LsHybridV (LsVikna as its maternal strain)", "assay": "Deltamethrin bioassay on adult male sea lice, hybrid strain with resistant maternal strain", "format": "in vivo, Lepeophtheirus salmonis", "protocol": "In order to hybridise the lice strains for the inheritance experiment, the parental strains were first synchronised and multiplied up in numbers by simultaneously infecting 20 Atlantic salmon with copepods. In total, 1000 copepods per strain were added. At 32 days post infection (dpi), all salmon were anaesthetised and approximately half of the lice were carefully removed using tweezers. At this stage, lice were predominantly preadult 2 females and adult males, with a few percent adult females and preadult 2 males. The lice removed from the salmon were sexed, and then used to create the reciprocal hybrid strains. This was achieved by combining 4-5 females from the resistant strain and 4-5 males from the sensitive strain (LsHybridV), and 4-5 females from the sensitive strain and 4-5 males from the resistant strain (LsHybridG). Only preadult 2 females were used. These combinations were each placed into 2 replicate tanks in order to make two hybrid strains (4 groups and 8 tanks at this stage). At 67-68 dpi, all lice were removed from the four strains. Egg strings were removed from adult females and incubated in containers containing a single strain each. The number of adult lice, and harvested egg strings varied, but all were incubated (Table 2). Table 2. Number of egg strings collected from each strain. Egg strings from replicate tanks were pooled. Most egg strings were part of a pair.\nThe subsequent generation (F2, Fig. 2) were both produced using the general procedure described above, although the hybrid strains were only crossed back to themselves to create multiple generation-hybrids. Collection of egg strings, which marked the establishment of a new generation, was done at 55 and 56 dpi respectively. Salmon that hosted the previous generation were re-used for reinfection with the next generation, but hosted only the same experimental strain.\n(§1) Each strain, including both types of hybrids obtained in example 1 were quantified in their tolerance of deltamethrin at sampling points 1 and 2 representing the F1 and F2 generations for the hybrids (Fig. 1 and 2). Bioassays were performed according to standard guidelines (SEARCH Consortium, 2006, Sea lice resistance to chemotherapeutants: A handbook in resistance management. 2 ed.), with minor modifications. Only adult male lice were used for the bioassay, which after sampling (at 55 or 56 dpi) had been incubated overnight in running seawater (ca. 10 °C). The 30 min exposure to the prepared deltamethrin concentration was also carried out at ca. 10 °C, and higher concentrations than those described in the given protocol were included (Table S3). After exposure to deltamethrin, the lice were kept in running seawater (24 h at ca. 10 °C) until evaluation of the bioassays. […] EC50 values were calculated using probit analysis (PoloPlus 2.0; LeOra Software, CA, USA). Table 3a. Deltamethrin bioassays performed on sampling set 1"}, "[2]": {"system": "LsGulen (pyrethroid sensitive strain)", "format": "in vivo, Lepeophtheirus salmonis", "from_the_text": "In order to investigate the inheritance and mechanism of pyrethroid resistance in L. salmonis, two strains (sensitive and resistant) and their reciprocal hybrids were used for a two-generation breeding experiment complimented with bioassays to measure tolerance (Fig. 2). The pyrethroid sensitive strain (hereon also referred to as LsGulen) was collected in June 2006 from newly slaughtered rainbow trout from Gulen in western Norway. The pyrethroid resistant strain (hereon also referred to as LsVikna) was collected in February 2009 from a salmon farm in Vikna, North Trøndelag, Norway. The resistant strain was collected on the basis of suspected reduced sensitivity to pyrethroids due to the fact that there had been reported a treatment failure on the farm from which it was collected. This was subsequently confirmed in bioassays with LsGulen as sensitive control.\nas §1, with “Deltamethrin bioassays performed on sampling set 1” left out"}},
  "note": "Read-outs that look alike come from different tables or passages of the source.",
  "data": [
    {"smiles": "CC1(C)[C@H](C(=O)O[C@H](C#N)c2cccc(Oc3ccccc3)c2)[C@@H]1C=C(Br)Br", "note": "[Deltamethrin, deltamethrin]", "values": [
      {"measurement": "survival of the bioassay", "setting": "[1]; above 1 ppb, maternal hybrid strain of the resistant strain", "result": "survived the bioassay"},
      {"measurement": "% Inactive", "setting": "[1]; sampling set 1, F1, fish tank 02, dose 0.1 ppb", "result": 0, "unit": "%"},
      {"measurement": "% Inactive", "setting": "[1]; sampling set 1, F1, fish tank 02, dose 0.3 ppb", "result": 0, "unit": "%"},
      {"measurement": "% Inactive", "setting": "[1]; sampling set 1, F1, fish tank 02, dose 1 ppb", "result": 5, "unit": "%"},
      {"measurement": "% Inactive", "setting": "[1]; sampling set 1, F1, fish tank 02, dose 3 ppb", "result": 13, "unit": "%"},
      {"measurement": "% Inactive", "setting": "[1]; sampling set 1, F1, fish tank 02, dose 6 ppb", "result": 5, "unit": "%"},
      {"measurement": "% Inactive", "setting": "[1]; sampling set 1, F1, fish tank 02, dose 12 ppb", "result": 31, "unit": "%"},
      {"measurement": "% Inactive", "setting": "[1]; sampling set 1, F1, fish tank 06, dose 0.1 ppb", "result": 0, "unit": "%"},
      {"measurement": "% Inactive", "setting": "[1]; sampling set 1, F1, fish tank 06, dose 0.3 ppb", "result": 0, "unit": "%"},
      {"measurement": "% Inactive", "setting": "[1]; sampling set 1, F1, fish tank 06, dose 1 ppb", "result": 7, "unit": "%"},
      {"measurement": "% Inactive", "setting": "[1]; sampling set 1, F1, fish tank 06, dose 3 ppb", "result": 2, "unit": "%"},
      {"measurement": "% Inactive", "setting": "[1]; sampling set 1, F1, fish tank 06, dose 6 ppb", "result": 9, "unit": "%"},
      {"measurement": "% Inactive", "setting": "[1]; sampling set 1, F1, fish tank 06, dose 12 ppb", "result": 32, "unit": "%"},
      {"measurement": "% Inactive", "setting": "[1]; sampling set 2, F2, fish tank 06, dose 0.1 ppb", "result": 0, "unit": "%"},
      {"measurement": "% Inactive", "setting": "[1]; sampling set 2, F2, fish tank 06, dose 0.3 ppb", "result": 0, "unit": "%"},
      {"measurement": "% Inactive", "setting": "[1]; sampling set 2, F2, fish tank 06, dose 0.5 ppb", "result": 0, "unit": "%"},
      {"measurement": "% Inactive", "setting": "[1]; sampling set 2, F2, fish tank 06, dose 1 ppb", "result": 0, "unit": "%"},
      {"measurement": "% Inactive", "setting": "[1]; sampling set 2, F2, fish tank 06, dose 3 ppb", "result": 16, "unit": "%"},
      {"measurement": "% Inactive", "setting": "[1]; sampling set 2, F2, fish tank 06, dose 6 ppb", "result": 14, "unit": "%"},
      {"measurement": "% Inactive", "setting": "[1]; sampling set 2, F2, fish tank 06, dose 12 ppb", "result": 21, "unit": "%"},
      {"measurement": "% Inactive", "setting": "[1]; sampling set 2, F2, fish tank 06, dose 20 ppb", "result": 40, "unit": "%"},
      {"measurement": "% Inactive", "setting": "[1]; sampling set 2, F2, fish tank 09, dose 0.1 ppb", "result": 14, "unit": "%"},
      {"measurement": "% Inactive", "setting": "[1]; sampling set 2, F2, fish tank 09, dose 0.3 ppb", "result": 0, "unit": "%"},
      {"measurement": "% Inactive", "setting": "[1]; sampling set 2, F2, fish tank 09, dose 0.5 ppb", "result": 3, "unit": "%"},
      {"measurement": "% Inactive", "setting": "[1]; sampling set 2, F2, fish tank 09, dose 1 ppb", "result": 5, "unit": "%"},
      {"measurement": "% Inactive", "setting": "[1]; sampling set 2, F2, fish tank 09, dose 3 ppb", "result": 0, "unit": "%"},
      {"measurement": "% Inactive", "setting": "[1]; sampling set 2, F2, fish tank 09, dose 6 ppb", "result": 19, "unit": "%"},
      {"measurement": "% Inactive", "setting": "[1]; sampling set 2, F2, fish tank 09, dose 12 ppb", "result": 8, "unit": "%"},
      {"measurement": "% Inactive", "setting": "[1]; sampling set 2, F2, fish tank 09, dose 20 ppb", "result": 54, "unit": "%"},
      {"measurement": "mortality", "setting": "[2]; above 1 ppb, sensitive strain", "result": 100, "unit": "%"},
      {"measurement": "% Inactive", "setting": "[2]; sampling set 1, F15, fish tank 04, dose 0.1 ppb", "result": 0, "unit": "%"},
      {"measurement": "% Inactive", "setting": "[2]; sampling set 1, F15, fish tank 04, dose 0.3 ppb", "result": 48, "unit": "%"},
      {"measurement": "% Inactive", "setting": "[2]; sampling set 1, F15, fish tank 04, dose 1 ppb", "result": 100, "unit": "%"},
      {"measurement": "% Inactive", "setting": "[2]; sampling set 1, F15, fish tank 04, dose 3 ppb", "result": 100, "unit": "%"},
      {"measurement": "% Inactive", "setting": "[2]; sampling set 1, F15, fish tank 04, dose 6 ppb", "result": 100, "unit": "%"},
      {"measurement": "% Inactive", "setting": "[2]; sampling set 1, F15, fish tank 04, dose 12 ppb", "result": 100, "unit": "%"},
      {"measurement": "% Inactive", "setting": "[2]; sampling set 1, F15, fish tank 10, dose 0.1 ppb", "result": 0, "unit": "%"},
      {"measurement": "% Inactive", "setting": "[2]; sampling set 1, F15, fish tank 10, dose 0.3 ppb", "result": 50, "unit": "%"},
      {"measurement": "% Inactive", "setting": "[2]; sampling set 1, F15, fish tank 10, dose 1 ppb", "result": 100, "unit": "%"},
      {"measurement": "% Inactive", "setting": "[2]; sampling set 1, F15, fish tank 10, dose 3 ppb", "result": 100, "unit": "%"},
      {"measurement": "% Inactive", "setting": "[2]; sampling set 1, F15, fish tank 10, dose 6 ppb", "result": 100, "unit": "%"},
      {"measurement": "% Inactive", "setting": "[2]; sampling set 1, F15, fish tank 10, dose 12 ppb", "result": 100, "unit": "%"},
      {"measurement": "% Inactive", "setting": "[2]; sampling set 2, F16, fish tank 03, dose 0.1 ppb", "result": 5, "unit": "%"},
      {"measurement": "% Inactive", "setting": "[2]; sampling set 2, F16, fish tank 03, dose 0.3 ppb", "result": 48, "unit": "%"},
      {"measurement": "% Inactive", "setting": "[2]; sampling set 2, F16, fish tank 03, dose 0.5 ppb", "result": 86, "unit": "%"},
      {"measurement": "% Inactive", "setting": "[2]; sampling set 2, F16, fish tank 03, dose 1 ppb", "result": 100, "unit": "%"},
      {"measurement": "% Inactive", "setting": "[2]; sampling set 2, F16, fish tank 03, dose 3 ppb", "result": 100, "unit": "%"},
      {"measurement": "% Inactive", "setting": "[2]; sampling set 2, F16, fish tank 03, dose 6 ppb", "result": 100, "unit": "%"},
      {"measurement": "% Inactive", "setting": "[2]; sampling set 2, F16, fish tank 04, dose 0.1 ppb", "result": 8, "unit": "%"},
      {"measurement": "% Inactive", "setting": "[2]; sampling set 2, F16, fish tank 04, dose 0.3 ppb", "result": 55, "unit": "%"},
      {"measurement": "% Inactive", "setting": "[2]; sampling set 2, F16, fish tank 04, dose 0.5 ppb", "result": 95, "unit": "%"},
      {"measurement": "% Inactive", "setting": "[2]; sampling set 2, F16, fish tank 04, dose 1 ppb", "result": 100, "unit": "%"},
      {"measurement": "% Inactive", "setting": "[2]; sampling set 2, F16, fish tank 04, dose 3 ppb", "result": 100, "unit": "%"},
      {"measurement": "% Inactive", "setting": "[2]; sampling set 2, F16, fish tank 04, dose 6 ppb", "result": 100, "unit": "%"},
      {"measurement": "% Inactive", "setting": "[2]; sampling set 2, F16, fish tank 04, dose 12 ppb", "result": 100, "unit": "%"}
    ]}
  ]
}
